In EP3045469A1, “POLYMYXIN DERIVATIVE AND USES THEREOF” (priority 2015, dated 2016):
Where “and” joins values, the source holds several entries; their conditions need not be identical. Equal values may be shown once. Read-outs that look alike come from different tables or passages of the source.

Experiments:
A. baumannii ATCC 19606 = test system: A. baumannii ATCC 19606
Experimental: (§1) Synergy studies were performed by using polymyxin derivatives in combination with rifampin, a model compound for such antibacterial agents that the intact outer membrane of Gram-negative bacteria acts as a permeability barrier.

A. baumannii JMI 48125 = test system: A. baumannii JMI 48125
Experimental: as §1

E. coli ATCC 25922 = test system: E. coli ATCC 25922
Experimental: as §1

E. coli JMI 3328 = test system: E. coli JMI 3328
Experimental: as §1

K. pneumoniae ATCC 43816 = test system: K. pneumoniae ATCC 43816
Experimental: as §1

K. pneumoniae JMI 27072 = test system: K. pneumoniae JMI 27072
Experimental: as §1

P. aeruginosa ATCC 27853 = test system: P. aeruginosa ATCC 27853
Experimental: as §1

P. aeruginosa JMI 7445 = test system: P. aeruginosa JMI 7445
Experimental: as §1

E. coli JMI 109 = test: MIC assay (CLSI broth microdilution; checkerboard with rifampin); assay type: cell-based, Escherichia coli; conditions: in combination with rifampin (0.25 µg/mL), duplicate checkerboard assays; polymyxin-nonsusceptible strain
Experimental: as §1

[1] = 7-day intravenous toxicity (nephrotoxicity) study in cynomolgus monkeys; conditions: IV infusion TID; for animals euthanized due to severe nephrotoxic effects: seven days, 3 animals per group
Experimental: In vivo toxicity and toxicokinetic studies were performed by using cynomolgus monkeys. The laboratory that performed the animal studies is accredited by the Association for Assessment and Accreditation of Laboratory Animal Care (AAALAC), has an Animal Welfare Assurance issued by the Office of Laboratory Animal Welfare (OLAW), is registered with the United States Department of Agriculture (USDA), and has an Institutional Animal Care and Use Committee (IACUC) responsible for compliance with applicable laws and regulations concerning the humane care and use of laboratory animals.
Naive female cynomolgus monkeys were acclimatized to study room for 28 days during which each animal was implanted with a permanent indwelling femoral catheter to permit continuous intravenous infusions. The animals were allowed surgical recovery period of at least 2 weeks before initiating dosing.
Polymyxin B sulfate was from Sigma-Aldrich (catalogue number P0972, lot number BCBF8382V). On each day of use, appropriate quantities of NAB739, NAB815 or polymyxin B were weighed and dissolved in appropriate volumes of sterile saline to prepare a stock solution for each test article and positive control. A correction factor was used in the stock solution preparation to account for both the purity and sulfate content in each test article. Accordingly, the dose (such as 36 mg/kg/d) refers to the dose of the pure peptide as its free base form, not as its sulfate salt.
The doses were the following: polymyxin B 18 mg/kg/d (Group 1), polymyxin B 24 mg/kg/d (Group 2), NAB739 24 mg/kg/d (Group 3), NAB739 36 mg/kg/d (Group 4), NAB815 24 mg/kg/d (Group 5), NAB815 36 mg/kg/d (Group 6). Three animals were included in each study groups.
(§2) For seven days, the animals were dosed by intravenous (IV) infusion three times daily (TID) at a dose volume of 10 mL/kg for 1 hour (± 10 minutes), 8 ± 0.5 hours apart. The day of initial dose administration was designated study Day 1, with subsequent days consecutively numbered. Days prior to the initial dose administration were consecutively numbered with the final day of acclimation referenced as Day -1.
(§3) The following parameters were evaluated at designed intervals: clinical observations, body weights, clinical pathology (hematology, coagulation, serum chemistry, urinalysis including urine sediments and urine chemistry), toxi-cokinetics (plasma and urine) and anatomic pathology (kidney). In cases of animals sacrificed on an unscheduled basis, samples were taken on the day of the sacrifice.
On the day of necropsy, animals were sedated with ketamine, weighed, and anesthetized with an intravenous injection of a commercial pentobarbital and phenytoin solution, followed by exsanguinations.
At necropsy, gross observations and organ weights were recorded, and specific tissues were collected. Histopathology was conducted on sections of kidney stained with hematoxylin and eosin (H&E).
The figures also show Urine N-acetyl-β-D-glucosaminidase/urine creatinine ratio (U-NAG/Crea; Fig. 3) and Urine Gamma Glutamyltransferase/urine creatinine ratio (U-GGT/Crea; Fig. 4), both urine biomarkers for kidney injury, in those animals. S-Crea and U-Crea were measured by using an Olympus Analyzer (OA) and the modified Jaffe method, S-BUN by using OA and urease/L-glutamate dehydrogenase. U-NAG was measured by using OA/enzymatic, and U-GGT by using OA and glutamyl-carboxy-p-nitroanilide IFCC.
The presence of the following nephropathological parameters was recorded in each animal: tubular basophilia (regeneration), tubular degeneration/necrosis, infiltration (by mononuclear and/or mixed inflammatory cells), tubular dilatation, and tubular casts.

[2] = Toxicokinetics (plasma and urine levels by LC-MS/MS) in cynomolgus monkeys
Experimental: as §2, §3
Plasma and urine concentrations for toxicokinetic (TK) studies were determined by using liquid chromatograph interfaced with a mass spectrometer after precipitation of proteins. A sample (100 µL) was mixed with internal standard solution in water:formic acid (99:1 v/v; […]). Then, 600µL of 100:1 acetonitrile:formic acid was added. The plates were centrifuged at 3200 rpm for 5 minutes. Using a Tomtec Quadra96, a 450 µL aliquot was transferred to a new 96-well plate and dried under nitrogen at 40°C. Then, 200 µL of water:methanol:formic acid (85:15:1 1 v/v) was added and the plate sealed for LC-MS/MS injection. LC-MS system consisted of Waters Acquity liquid chromatograph interfaced with a Thermo Scientific TSQ Quantitative triple quadrupole MS with ionization in the positive ion mode. Each sample (20 µL) was injected onto a Waters Acquity BEH Shield RP18 column (2.1 x 50 mm; 1.7 µm) equilibrated at 50°C. Mobile Phase A was 85:15:1 v/v water:methanol:formic acid. Mobile Phase B was 50:50:1 v/v acetonitrile:methanol:formic acid.
Peak area ratios from the calibration standard responses were regressed using a (1/concentration^2) linear fit for polymyxin B using colistin as the internal standard. For NAB739 and NAB815, peak areas from the calibration standard responses were regressed using a (1/concentration^2) quadratic fit (without the use of an internal standard).
Toxicokinetic analysis was performed by using WinNonlin Phoenix version 6.3 software (Pharsight, Cary, NC). For plasma TK, noncompartmental IV infusion model was used.
The data is from the cynomolgus monkey studies described in the Example 3, where the peptides were administered as a 1-hour intravenous infusion thrice a day. The plasma and urine levels of the peptides were determined as in Example 3.

[3] = dogs; cited from earlier work
[4] = alone, Müller-Hinton II broth, 35°C, 20 hours
[5] = in combination with rifampin (0.25 µg/mL), duplicate checkerboard assays
[6] = the six animals at 18 mg/kg/d and 24 mg/kg/d

Work on Polymyxin B yielded an MIC (A. baumannii ATCC 19606; [4]) of 2 µg/mL, an MIC (A. baumannii ATCC 19606; [5]) of 0.5 µg/mL and an MIC (A. baumannii JMI 48125; [4]) of 2 µg/mL. The MIC (A. baumannii JMI 48125; [5]) was 1 µg/mL, the MIC (E. coli ATCC 25922; [4]) was 2 µg/mL and the MIC (E. coli ATCC 25922; [5]) was 0.5 to 1 µg/mL. For the same substance, the MIC (E. coli JMI 3328; [4]) was 2 µg/mL, the MIC (E. coli JMI 3328; [5]) was 0.5 to 1 µg/mL and the MIC (K. pneumoniae ATCC 43816; [4]) was 2 µg/mL. It also gave an MIC (K. pneumoniae ATCC 43816; [5]) of 0.5 to 1 µg/mL, an MIC (K. pneumoniae JMI 27072; [4]) of 2 µg/mL and an MIC (K. pneumoniae JMI 27072; [5]) of 1 µg/mL. For the same substance, the MIC (P. aeruginosa ATCC 27853; [4]) was 2 µg/mL, the MIC (P. aeruginosa ATCC 27853; [5]) was 1 µg/mL and the MIC (P. aeruginosa JMI 7445; [4]) was 2 µg/mL. For the same substance, the MIC (P. aeruginosa JMI 7445; [5]) was 1 µg/mL, the MIC (E. coli JMI 109) was 0.5 to 1 µg/mL and the “animals euthanized due to severe nephrotoxic effects” value ([1]; 18 mg/kg/d) was “all the three animals”. For the same substance, the “animals euthanized due to severe nephrotoxic effects” value ([1]; 24 mg/kg/d) was “Two animals”, the “S-BUN, S-Crea and U-GGT/Crea” value [1, 6] was “remarkably increased” and the U-NAG/Crea [1, 6] was “remarkably increased in five of the animals”. The “concentration in the urine” value ([2]; after infusion at 8 mg/kg, highest found either in the 0-4 h or 4-8 h sample, given for each animal, 8 mg/kg) was 7000 ng/mL and 9000 ng/mL and 15000 ng/mL, the “0-8 h recovery in urine” value ([2]; after the infusion of 8 mg/kg, percentages given for each animal, 8 mg/kg) was 1 % of the dose and 2 % of the dose (2×) and the “Area under the concentration-time from time 0 h to 8 h (AUCs 0-8h)” value ([2]; plasma, after the infusion of 8 mg/kg, day 1) was 112 (SD=5) hr*µg/mL. The “S-Crea and BUN response” value [3] was “elicited a rapid onset of S-Crea and BUN response”.
